Measured values: patent publication US5866681A, “Thrombin receptor antagonists” (priority 1995, dated 1999)
Read-outs that look alike come from different tables or passages of the source. *1 amine or outer side, *2 acyl side, *3 side chain or, on linkers, in order; H or OH if unused. Where a SMILES comes first, the peptide text is derived from it. [ ]: non-standard residue; d: D form. The star is where a group is joined. X10 = O=C([C@H](Cc1ccccc1)N(CCCc1ccccc1)[*:1])[*:2]; X14 = O=C([C@H](Cc1ccccc1)N(CC1CCCCC1)CC1CCCCC1)*; X23 = O=C([C@H](Cc1ccccc1)N(CCC1CCCC1)[*:1])[*:2]; X24 = CC(C)CCN([C@@H](Cc1ccccc1)C(=O)[*:2])[*:1]; X22 = CCCCCN([C@@H](CCc1ccccc1)C(=O)[*:2])[*:1]; X3 = CCCCCCCN([C@@H](Cc1ccccc1)C(=O)[*:2])[*:1]; X16 = CCCCCN([C@@H](Cc1ccccc1)C(=O)[*:2])[*:1]; X17 = CSCCCN([C@@H](Cc1ccccc1)C(=O)[*:2])[*:1]; X15 = CCCCN([C@@H](Cc1ccccc1)C(=O)[*:2])[*:1]; X11 = O=C([C@@H]1Cc2ccccc2CN1CC1CCCCC1)*; X19 = CC(C)(C)CN1Cc2ccccc2C[C@H]1C(=O)*; Butanoyl(2-OPh) = CCC(Oc1ccccc1)C(=O)*; X4 = CCCCCN1Cc2ccccc2C[C@H]1C(=O)*; Cha = N[C@@H](CC1CCCCC1)C(=O)O

Target: T1, thrombin receptor (Homo sapiens, UniProt P25116)
T1 construct: washed human platelets are prepared from blood drawn from healthy volunteers; endogenous in cells; host or cells: washed human platelets from healthy volunteers
T1 sequence (P25116 22-425): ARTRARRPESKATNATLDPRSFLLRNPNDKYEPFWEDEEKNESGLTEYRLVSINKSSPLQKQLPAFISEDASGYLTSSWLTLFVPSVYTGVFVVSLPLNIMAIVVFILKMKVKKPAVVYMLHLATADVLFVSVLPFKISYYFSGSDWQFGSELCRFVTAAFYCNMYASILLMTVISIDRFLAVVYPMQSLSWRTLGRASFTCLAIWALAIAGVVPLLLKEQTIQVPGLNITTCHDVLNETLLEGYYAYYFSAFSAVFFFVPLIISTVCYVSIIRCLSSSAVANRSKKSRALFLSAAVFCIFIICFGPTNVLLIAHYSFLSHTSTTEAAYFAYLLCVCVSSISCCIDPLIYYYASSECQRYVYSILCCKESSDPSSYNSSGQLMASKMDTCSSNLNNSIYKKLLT
Assay: Platelet aggregation assay for thrombin receptor antagonist activity (washed human platelets stimulated with α-thrombin)
Assay type: cell-based
Method: The compounds of the present invention may be tested for thrombin receptor antagonist activity by using a platelet aggregation assay. In this assay, washed human platelets are prepared from blood drawn from healthy volunteers who have not ingested any medications for two weeks prior to donation. Blood is drawn into 12.5% (vol/vol) ACD (85 mM sodium citrate, 111 mM dextrose, 71 mM citric acid) containing 0.1% (vol/vol) PGI2 (0.05 mg/mL PGI2, 100 mM Tris, pH 12). Platelet-rich plasma was obtained by centrifugation at 160×g for 20 minutes. The platelets were pelleted by centrifugation at 760×g for 10 minutes and resuspended in CGS (13 mM trisodium citrate, 120 mM sodium chloride, 30 mM dextrose, pH 7.0) containing 0.1% (vol/vol) PGI2, repelleted and resuspended in Tyrodes buffer (10 mM Hepes, 12 mM sodium bicarbonate, 138 mM sodium chloride, 5.5 mM glucose, 2.9 mM potassium chloride, 1.0 mM calcium chloride, pH 7.4) and stored at 37° C. Approximately 0.4-10 nM α-thrombin is used to stimulate platelet aggregation in control reactions which are monitored by aggregometry using an aggregometer. Candidate antagonists are added to the platelet mixture followed by the addition of thrombin in order to assess their ability to prevent thrombin-mediated aggregation.
Platelet aggregation can also be measured with washed platelets in 96-well microtiter plates as described in Fratantoni, J. C. et al., Am. J. Clin. Pathol. 94:613-617 (1990). The ability of the antagonists to block the thrombin receptor was assessed in this assay using various concentrations of antagonists. The concentration at which 50% inhibition of platelet aggregation is achieved is defined as IC50.

[1] = washed human platelets, thrombin-mediated aggregation, read-out: IC50 (concentration at which 50% inhibition of platelet aggregation is achieved)

| IC50 [1] | SMILES | IC50 |
| --- | --- | --- |
| 5 µM | CC(C)CCN[C@@H](Cc1ccccc1)C(=O)N[C@@H](CC1CCCCC1)C(=O)N[C@@H](CC1CCCCC1)C(=O)N[C@@H](CCCNC(=N)N)C(=O)N[C@@H](CCCCN)C(=O)N1CCC[C@H]1C(=O)N[C@@H](CC(N)=O)C(=O)N[C@@H](CC(=O)O)C(=O)N[C@@H](CCCCN)C(N)=O [Compound 1] (H-[X24][Cha][Cha]RKPNDK-NH2) |  |
| 10 µM | CSCCCN[C@@H](Cc1ccccc1)C(=O)N[C@@H](CC1CCCCC1)C(=O)N[C@@H](CC1CCCCC1)C(=O)N[C@@H](CCCNC(=N)N)C(=O)N[C@@H](CCCCN)C(=O)N1CCC[C@H]1C(=O)N[C@@H](CC(N)=O)C(=O)N[C@@H](CC(=O)O)C(=O)N[C@@H](CCCCN)C(N)=O [Compound 2] (H-[X17][Cha][Cha]RKPNDK-NH2) |  |
| 10 µM | CCCCCCCN[C@@H](Cc1ccccc1)C(=O)N[C@@H](CC1CCCCC1)C(=O)N[C@@H](CC1CCCCC1)C(=O)N[C@@H](CCCNC(=N)N)C(=O)N[C@@H](CCCCN)C(=O)N1CCC[C@H]1C(=O)N[C@@H](CC(N)=O)C(=O)N[C@@H](CC(=O)O)C(=O)N[C@@H](CCCCN)C(N)=O [Compound 3] (H-[X3][Cha][Cha]RKPNDK-NH2) |  |
| 5 µM | CCCCN[C@@H](Cc1ccccc1)C(=O)N[C@@H](CC1CCCCC1)C(=O)N[C@@H](CC1CCCCC1)C(=O)N[C@@H](CCCNC(=N)N)C(=O)N[C@@H](CCCCN)C(=O)N1CCC[C@H]1C(=O)N[C@@H](CC(N)=O)C(=O)N[C@@H](CC(=O)O)C(=O)N[C@@H](CCCCN)C(N)=O [Compound 4] (H-[X15][Cha][Cha]RKPNDK-NH2) |  |
| 2.5 µM | CCCCCN[C@@H](Cc1ccccc1)C(=O)N[C@@H](CC1CCCCC1)C(=O)N[C@@H](CC1CCCCC1)C(=O)N[C@@H](CCCNC(=N)N)C(=O)N[C@@H](CCCCN)C(=O)N1CCC[C@H]1C(=O)N[C@@H](CC(N)=O)C(=O)N[C@@H](CC(=O)O)C(=O)N[C@@H](CCCCN)C(N)=O [Compound 5] (H-[X16][Cha][Cha]RKPNDK-NH2) |  |
|  | N=C(N)NCCC[C@H](NC(=O)[C@H](CC1CCCCC1)NC(=O)[C@H](CC1CCCCC1)NC(=O)[C@H](Cc1ccccc1)NCCC1CCCC1)C(=O)N[C@@H](CCCCN)C(=O)N1CCC[C@H]1C(=O)N[C@@H](CC(N)=O)C(=O)N[C@@H](CC(=O)O)C(=O)N[C@@H](CCCCN)C(N)=O [Compound 6] (H-[X23][Cha][Cha]RKPNDK-NH2) | 10 µM |
|  | N=C(N)NCCC[C@H](NC(=O)[C@H](CC1CCCCC1)NC(=O)[C@H](CC1CCCCC1)NC(=O)[C@H](Cc1ccccc1)NCCCc1ccccc1)C(=O)N[C@@H](CCCCN)C(=O)N1CCC[C@H]1C(=O)N[C@@H](CC(N)=O)C(=O)N[C@@H](CC(=O)O)C(=O)N[C@@H](CCCCN)C(N)=O [Compound 7] (H-[X10][Cha][Cha]RKPNDK-NH2) | 5 µM |
| 5 µM | N=C(N)NCCC[C@H](NC(=O)[C@H](CC1CCCCC1)NC(=O)[C@H](CC1CCCCC1)NC(=O)[C@H](Cc1ccccc1)N(CC1CCCCC1)CC1CCCCC1)C(=O)N[C@@H](CCCCN)C(=O)N1CCC[C@H]1C(=O)N[C@@H](CC(N)=O)C(=O)N[C@@H](CC(=O)O)C(=O)N[C@@H](CCCCN)C(N)=O [Compound 8] (X14-[Cha][Cha]RKPNDK-NH2) |  |
| 15 µM | CCCCCN[C@@H](CCc1ccccc1)C(=O)N[C@@H](CC1CCCCC1)C(=O)N[C@@H](CC1CCCCC1)C(=O)N[C@@H](CCCNC(=N)N)C(=O)N[C@@H](CCCCN)C(N)=O [Compound 9] (H-[X22][Cha][Cha]RK-NH2) |  |
| 10 µM | CCC(Oc1ccccc1)C(=O)N[C@@H](CC1CCCCC1)C(=O)N[C@@H](CC1CCCCC1)C(=O)N[C@@H](CCCNC(=N)N)C(=O)N[C@@H](CCCCN)C(N)=O (stereo partly drawn) [Compound 10, 2-Phenoxybutyryl-Cha-Cha-Arg-Lys-NH2] ({Butanoyl(2-OPh)}-[Cha][Cha]RK-NH2) |  |
| 2.5 µM | CCCCCN1Cc2ccccc2C[C@H]1C(=O)N[C@@H](CC1CCCCC1)C(=O)N[C@@H](CC1CCCCC1)C(=O)N[C@@H](CCCNC(=N)N)C(=O)N[C@@H](CCCCN)C(N)=O [Compound 11, (N-n-pentyl-Tic)-Cha-Cha-Arg-Lys-NH2] (X4-[Cha][Cha]RK-NH2) |  |
| 20 µM | N=C(N)NCCC[C@H](NC(=O)[C@H](CC1CCCCC1)NC(=O)[C@H](CC1CCCCC1)NC(=O)[C@@H]1Cc2ccccc2CN1CC1CCCCC1)C(=O)N[C@@H](CCCCN)C(N)=O [Compound 12] (X11-[Cha][Cha]RK-NH2) |  |

| SMILES | IC50 [1] | IC50 |
| --- | --- | --- |
| CC(C)(C)CN1Cc2ccccc2C[C@H]1C(=O)N[C@@H](CC1CCCCC1)C(=O)N[C@@H](CC1CCCCC1)C(=O)N[C@@H](CCCNC(=N)N)C(=O)N[C@@H](CCCCN)C(N)=O [Compound 13] (X19-[Cha][Cha]RK-NH2) | 5 µM |  |
